These results are taken from ChEMBL document CHEMBL1201862, “PubChem BioAssay data set” (2004).

Calls of active or inactive are those of the source.

Data set [1] concerns the target T1, Heat shock factor protein 1 (Mus musculus, UniProt P38532).
T1 sequence (P38532 whole entry): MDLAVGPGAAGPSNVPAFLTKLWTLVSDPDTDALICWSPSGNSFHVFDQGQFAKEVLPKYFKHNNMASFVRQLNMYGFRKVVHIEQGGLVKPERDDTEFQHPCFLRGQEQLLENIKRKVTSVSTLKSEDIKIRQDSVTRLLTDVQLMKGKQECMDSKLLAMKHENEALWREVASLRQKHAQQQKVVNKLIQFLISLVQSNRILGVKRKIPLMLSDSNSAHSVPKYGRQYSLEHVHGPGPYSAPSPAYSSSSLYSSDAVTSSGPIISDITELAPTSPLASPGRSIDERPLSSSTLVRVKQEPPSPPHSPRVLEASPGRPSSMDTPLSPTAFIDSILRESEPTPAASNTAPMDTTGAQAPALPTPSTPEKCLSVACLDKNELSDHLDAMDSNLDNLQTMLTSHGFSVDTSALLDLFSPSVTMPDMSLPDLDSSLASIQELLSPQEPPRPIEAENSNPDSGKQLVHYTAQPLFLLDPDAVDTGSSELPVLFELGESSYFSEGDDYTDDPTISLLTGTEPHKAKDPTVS
Put plainly: inhibition of MG132-induced HSE-luciferase signal, confirmation, cell-based, NIH3T3, luminescence, dose retest (AID 2382).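 Also: NIH3T3 fibroblasts with HSF1-driven luciferase reporter stressed by proteasome inhibitor MG132; luminescence from HSF1-driven luciferase expression after 8 hours of MG132 stress.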 The class given is functional.

The target in data set [2] is T2, Microphthalmia-associated transcription factor (Homo sapiens, UniProt O75030).
T2 sequence (O75030 whole entry): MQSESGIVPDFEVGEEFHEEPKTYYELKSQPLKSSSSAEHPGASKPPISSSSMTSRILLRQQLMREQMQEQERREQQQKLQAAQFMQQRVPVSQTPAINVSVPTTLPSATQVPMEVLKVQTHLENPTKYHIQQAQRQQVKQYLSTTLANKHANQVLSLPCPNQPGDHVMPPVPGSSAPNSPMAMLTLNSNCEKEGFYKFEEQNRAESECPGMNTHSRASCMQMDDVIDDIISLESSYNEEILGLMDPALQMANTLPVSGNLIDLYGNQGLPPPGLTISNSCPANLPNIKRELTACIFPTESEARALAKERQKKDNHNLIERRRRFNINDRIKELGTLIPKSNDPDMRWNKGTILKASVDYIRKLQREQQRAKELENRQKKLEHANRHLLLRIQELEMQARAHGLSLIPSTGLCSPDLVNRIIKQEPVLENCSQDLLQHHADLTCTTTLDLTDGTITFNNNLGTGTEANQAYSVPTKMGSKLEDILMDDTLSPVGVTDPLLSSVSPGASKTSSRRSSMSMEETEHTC
Put plainly: TRPM1 promoter luciferase signal decrease, dose response, MITF inhibitor project, cell-based, SK-MEL-5, cherry-picked, set 3 (AID 493073).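 Also: SK-MEL-5 melanoma cells with luciferase driven by the MITF target TRPM1 promoter.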 It counts as functional.

Data set [3] in a line: inhibitors of HIV Env-driven cell fusion, dose response, cherry-pick (AID 652057). It counts as functional, cell-based.
The nature of data set [4]: CEM21 lymphoblast cell cytotoxicity, dose response, cytotoxicity control for viral fusion inhibitor project, CellTiter-Glo luminescence, cherry-picked (AID 652042).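 Also: potency for signal decrease meaning cytotoxicity.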 It counts as functional, cell-based.
A short description of data set [5]: ZM109 Env clade C HIV-1 fusion inhibitors, dose response, HeLa effector, CEM target cells, luciferase, cherry-pick (AID 652058). It counts as functional, cell-based.
The nature of data set [6]: off-target signal loss in HeLa-CEM21 co-culture – HeLa F-luc CTL cells, cherry-picked, counter-screen for HIV-1 Env fusion inhibitor project, dose response (AID 652040).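 Also: potency for signal decrease marking cytotoxic or nonspecific inhibition.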 It counts as functional, cell-based. (In general: Counterscreens check selectivity or assay interference.)
A short description of data set [7]: inhibitors of clade B AD8 Env fusion, dose response, cell-based, cherry-pick (AID 652062).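 Also: luciferase signal from cell-cell fusion driven by HIV-1 clade B AD8 Env; potency is for inhibitors of fusion seen as a drop in luminescence.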 The class given is functional.
The next data set deals with Protein Tat (Human immunodeficiency virus type 1 group M subtype B (isolate HXB2)(HIV-1), UniProt P04608). It counts as functional.
Data set [8] is described as follows: THP-1 cell cytotoxicity, dose response, cytotoxicity control for Vif-APOBEC3G degradation inhibitor project, THP-1 cells (AID 1117359). The class given is functional. As to conditions: Human immunodeficiency virus 1, THP-1.
The nature of data set [9]: inhibitors of Vif binding to APOBEC3G peptide, primary screen, biochemical, TR-FRET, GST-Vif 1-94, biotin-A3G peptide, dose response retest (AID 1117319).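 Also: TR-FRET signal of purified GST-Vif binding a biotinylated A3G peptide; inhibitors lower the FRET signal by blocking Vif and A3G binding.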 It counts as functional.
The target of data set [10] is T3, Cytochrome P450 2C19 (Homo sapiens, UniProt P33261). Put plainly: qHTS Assay for Inhibitors and Substrates of Cytochrome P450 2C19. [Related pubchem assays: 410 ]. It counts as ADME. The note with it: read-out: Potency. In general terms: Quantitative high-throughput screening tests each substance at several concentrations.
Data set [11] deals with T4, RNA-binding protein pos-1 (Caenorhabditis elegans, UniProt G5EF15).
T4 sequence (G5EF15 whole entry): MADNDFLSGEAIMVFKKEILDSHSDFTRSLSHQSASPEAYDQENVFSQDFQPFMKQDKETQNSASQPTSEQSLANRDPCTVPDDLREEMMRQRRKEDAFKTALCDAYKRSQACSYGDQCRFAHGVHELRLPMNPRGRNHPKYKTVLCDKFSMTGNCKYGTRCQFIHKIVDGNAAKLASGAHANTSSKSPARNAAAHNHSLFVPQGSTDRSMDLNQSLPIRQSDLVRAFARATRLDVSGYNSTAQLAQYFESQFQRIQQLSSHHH
Put plainly: inhibitors of POS-1/mex-3 RNA binding, dose response, biochemical, fluorescence polarization (AID 1964).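 Also: purified POS-1 fused to maltose binding protein made in E. coli; potency of compounds blocking POS-1 binding to fluorescent RNA.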 A general note: Fluorescence polarisation rises when a labelled molecule tumbles more slowly, as on binding a larger partner.

For data set [12], the target named is T5, Zinc finger protein mex-5 (Caenorhabditis elegans, UniProt Q9XUB2).
T5 sequence (Q9XUB2 whole entry): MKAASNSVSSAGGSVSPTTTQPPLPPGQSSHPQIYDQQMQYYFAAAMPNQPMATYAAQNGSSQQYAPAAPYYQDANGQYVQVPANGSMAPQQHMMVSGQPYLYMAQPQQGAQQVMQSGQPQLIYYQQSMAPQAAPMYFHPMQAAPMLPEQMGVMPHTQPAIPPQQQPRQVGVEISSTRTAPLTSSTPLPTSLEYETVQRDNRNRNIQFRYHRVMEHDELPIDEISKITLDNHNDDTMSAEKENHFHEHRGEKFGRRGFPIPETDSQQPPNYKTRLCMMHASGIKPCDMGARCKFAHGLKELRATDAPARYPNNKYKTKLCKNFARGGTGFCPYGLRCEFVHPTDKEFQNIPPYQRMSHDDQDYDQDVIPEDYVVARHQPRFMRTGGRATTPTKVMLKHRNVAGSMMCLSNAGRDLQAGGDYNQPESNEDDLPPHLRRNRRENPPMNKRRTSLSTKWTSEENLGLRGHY
Put plainly: MEX-5/TCR-2 RNA interaction inhibitors, dose response, biochemical, C. elegans, fluorescence polarization (AID 1960).

The target of the next data set is Ephrin type-A receptor 4 (Mus musculus, UniProt Q03137). Put plainly: inhibitors of EphA4 binding to KYL peptide, primary screen, biochemical, colorimetric, mouse EphA4 (AID 689). It counts as functional.
A further data set deals with CHO. Put plainly: cytotoxicity in TLR9-MyD88 CHO cells, dose response, cytotoxicity control for TLR9-MyD88 binding inhibitor project, cell-based, luminescence (AID 588339).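 Also: CHO cells stably coexpressing TLR9 and MyD88 fusions from primary screen; compound exposure lasted 48 hours before viability readout.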 It counts as functional, hamster. As to conditions: Cricetulus griseus.
The next data set concerns the target Beta Lactamase (Pseudomonas aeruginosa, UniProt Q932Y6). Put plainly: beta-lactamase reporter inhibitor potency, dose response, artefact control for TLR9-MyD88 binding inhibitor project, BLA reporter cells, FRET fluorescence (AID 588341).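 Also: cell based assay in CHO-K1 cells stably expressing beta-lactamase.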 It counts as cell-based.
The target in data set [13] is Aryl hydrocarbon receptor (Homo sapiens, UniProt P35869). Put plainly: Luminescence-based cell-based high throughput dose response assay for activators of the Aryl Hydrocarbon Receptor (AHR). [Related pubchem assays: 2796 (Primary screen (AHR activators in singlicate)), 2845 (Confirmation screen (AHR activators in triplicate)), 434939 (Counterscreen (PXR activators in triplicate)), 2804 (Summary (AHR activators))]. It counts as ADME.

Data set [14] has as its target T3, Cytochrome P450 2C19. Put plainly: Cytochrome panel assay with activity outcomes. Panel member name: p450-cyp2c19 Compounds with AC50 equal or less than 10 uM are considered active. The class given is functional. As to conditions: read-out: AC50.
The target in another data set is Cytochrome P450 2C9 (Homo sapiens, UniProt P11712).
Cytochrome P450 2C9, sequence (P11712 whole entry): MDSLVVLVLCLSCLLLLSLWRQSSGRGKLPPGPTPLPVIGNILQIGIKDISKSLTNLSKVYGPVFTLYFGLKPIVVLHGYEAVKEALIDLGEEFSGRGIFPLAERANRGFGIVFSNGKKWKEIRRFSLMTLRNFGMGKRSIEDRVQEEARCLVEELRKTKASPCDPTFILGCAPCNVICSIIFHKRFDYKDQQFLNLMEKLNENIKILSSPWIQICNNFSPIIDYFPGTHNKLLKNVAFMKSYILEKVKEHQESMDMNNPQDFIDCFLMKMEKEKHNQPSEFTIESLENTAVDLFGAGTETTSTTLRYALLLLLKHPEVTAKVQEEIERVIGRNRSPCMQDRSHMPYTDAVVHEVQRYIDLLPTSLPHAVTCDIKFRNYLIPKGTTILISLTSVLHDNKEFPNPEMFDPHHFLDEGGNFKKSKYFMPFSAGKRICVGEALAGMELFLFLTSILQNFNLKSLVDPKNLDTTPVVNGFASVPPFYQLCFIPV

T3 sequence (P33261 whole entry): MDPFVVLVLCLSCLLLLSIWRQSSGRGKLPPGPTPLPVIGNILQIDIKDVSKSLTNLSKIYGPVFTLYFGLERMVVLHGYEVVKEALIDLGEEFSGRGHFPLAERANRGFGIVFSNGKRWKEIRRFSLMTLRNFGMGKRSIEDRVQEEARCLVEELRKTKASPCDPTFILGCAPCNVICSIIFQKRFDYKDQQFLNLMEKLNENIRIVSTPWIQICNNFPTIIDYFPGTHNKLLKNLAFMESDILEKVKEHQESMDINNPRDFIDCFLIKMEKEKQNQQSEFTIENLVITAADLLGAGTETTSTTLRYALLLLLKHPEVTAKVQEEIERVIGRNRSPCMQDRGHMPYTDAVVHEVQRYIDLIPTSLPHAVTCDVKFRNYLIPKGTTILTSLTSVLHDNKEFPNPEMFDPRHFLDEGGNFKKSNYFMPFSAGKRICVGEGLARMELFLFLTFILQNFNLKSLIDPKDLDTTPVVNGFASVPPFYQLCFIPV
Aryl hydrocarbon receptor, sequence (P35869 whole entry): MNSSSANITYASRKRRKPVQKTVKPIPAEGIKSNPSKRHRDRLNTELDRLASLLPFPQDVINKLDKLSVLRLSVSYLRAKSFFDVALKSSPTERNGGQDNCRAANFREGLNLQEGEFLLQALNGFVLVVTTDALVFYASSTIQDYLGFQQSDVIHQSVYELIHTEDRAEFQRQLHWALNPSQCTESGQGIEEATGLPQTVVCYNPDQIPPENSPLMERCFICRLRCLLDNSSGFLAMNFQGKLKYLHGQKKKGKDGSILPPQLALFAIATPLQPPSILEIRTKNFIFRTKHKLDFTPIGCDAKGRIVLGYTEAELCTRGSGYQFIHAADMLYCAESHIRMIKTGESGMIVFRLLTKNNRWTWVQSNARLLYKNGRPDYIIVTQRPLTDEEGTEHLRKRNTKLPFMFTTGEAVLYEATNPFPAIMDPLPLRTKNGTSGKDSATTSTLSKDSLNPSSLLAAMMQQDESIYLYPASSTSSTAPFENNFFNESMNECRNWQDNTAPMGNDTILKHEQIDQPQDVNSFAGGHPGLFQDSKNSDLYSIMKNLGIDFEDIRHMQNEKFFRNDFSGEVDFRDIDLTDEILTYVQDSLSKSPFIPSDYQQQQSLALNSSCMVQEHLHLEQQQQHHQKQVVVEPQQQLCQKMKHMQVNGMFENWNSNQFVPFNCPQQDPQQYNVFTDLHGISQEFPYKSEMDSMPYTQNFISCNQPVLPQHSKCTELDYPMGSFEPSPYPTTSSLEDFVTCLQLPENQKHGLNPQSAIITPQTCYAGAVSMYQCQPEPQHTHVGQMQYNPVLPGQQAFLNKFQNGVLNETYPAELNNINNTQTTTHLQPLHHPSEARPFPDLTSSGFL
Ephrin type-A receptor 4, sequence (Q03137 whole entry, the tested form may be a part): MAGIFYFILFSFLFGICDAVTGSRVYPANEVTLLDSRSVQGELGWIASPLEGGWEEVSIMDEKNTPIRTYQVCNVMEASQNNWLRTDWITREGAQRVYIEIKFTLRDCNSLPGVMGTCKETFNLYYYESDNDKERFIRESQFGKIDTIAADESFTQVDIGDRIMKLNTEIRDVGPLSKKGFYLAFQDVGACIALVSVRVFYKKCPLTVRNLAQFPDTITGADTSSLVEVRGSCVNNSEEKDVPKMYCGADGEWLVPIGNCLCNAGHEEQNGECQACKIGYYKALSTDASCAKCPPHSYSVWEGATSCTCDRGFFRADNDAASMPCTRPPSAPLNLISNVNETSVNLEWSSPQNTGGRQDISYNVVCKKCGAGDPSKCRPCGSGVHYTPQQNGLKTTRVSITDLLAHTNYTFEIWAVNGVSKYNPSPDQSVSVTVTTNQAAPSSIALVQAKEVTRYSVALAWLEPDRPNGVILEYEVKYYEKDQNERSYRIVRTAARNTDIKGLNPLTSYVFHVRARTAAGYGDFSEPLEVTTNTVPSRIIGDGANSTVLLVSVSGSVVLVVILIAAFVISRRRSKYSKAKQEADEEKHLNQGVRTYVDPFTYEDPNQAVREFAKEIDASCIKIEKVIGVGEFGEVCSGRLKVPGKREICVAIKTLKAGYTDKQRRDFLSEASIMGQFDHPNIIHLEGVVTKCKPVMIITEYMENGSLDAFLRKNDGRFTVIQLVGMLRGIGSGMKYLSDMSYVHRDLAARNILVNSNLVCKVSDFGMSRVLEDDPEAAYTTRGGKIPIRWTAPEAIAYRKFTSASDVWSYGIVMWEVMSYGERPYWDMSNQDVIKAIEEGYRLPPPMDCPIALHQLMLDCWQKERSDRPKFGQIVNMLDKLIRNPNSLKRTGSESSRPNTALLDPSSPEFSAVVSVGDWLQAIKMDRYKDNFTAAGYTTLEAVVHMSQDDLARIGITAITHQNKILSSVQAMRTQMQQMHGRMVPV
Protein Tat, sequence (P04608 whole entry): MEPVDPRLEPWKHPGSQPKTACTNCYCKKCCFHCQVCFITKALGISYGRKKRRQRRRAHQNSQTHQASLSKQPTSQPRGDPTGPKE
Beta Lactamase, sequence (Q932Y6 whole entry): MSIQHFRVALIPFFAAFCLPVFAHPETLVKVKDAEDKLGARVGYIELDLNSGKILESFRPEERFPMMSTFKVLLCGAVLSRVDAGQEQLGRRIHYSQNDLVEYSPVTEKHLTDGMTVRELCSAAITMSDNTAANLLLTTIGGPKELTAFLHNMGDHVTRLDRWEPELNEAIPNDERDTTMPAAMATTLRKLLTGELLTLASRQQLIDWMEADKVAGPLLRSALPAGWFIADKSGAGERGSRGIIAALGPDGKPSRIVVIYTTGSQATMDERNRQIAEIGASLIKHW

Consider `CN(c1ccc2nc3ccccc3c(=O)n2n1)C1CCCCC1`, for which the EC50 (commonly the concentration at which the effect is half-maximal) in data set [1] is < 160 nM (active). Also, the AC50 in data set [2] is 1.29 µM (active); in data set [3], 2.13 µM (active); in data set [4], 26.9 µM (active); in data set [5], 31.1 µM (active); in data set [6], 6.41 µM (active); in data set [7], 6.5 µM (active). At Protein Tat, the half-maximal inhibitory concentration (IC50) – broadly, the point on the concentration scale where inhibition reaches its midpoint – was > 100 µM (active). For the same compound, the cytotoxic concentration (CC50) (as a rule, the concentration giving 50% cytotoxicity) in [8] is 36.6 µM (active).
Consider `Cc1cc(C)cc(NC2=CC(=O)CC(c3ccco3)C2)c1` (centres undefined), for which, in data set [8], the CC50 is 25.1 µM (active). Moreover, the IC50 in data set [9] was > 60.7 µM (active).
Turning to `COc1cc2c(cc1OC)-c1c(O)c(OC)cc3c1[C@@H](C2)N(C)CC3`, on Cytochrome P450 2C19 [10], the AC50 is 25.1 µM (inconclusive).
Consider `COc1cc(C(=O)Nc2cccc(-c3nc4ncccc4o3)c2C)cc(OC)c1OC`, for which, in data set [9], the IC50 is > 100 µM (active).
Turning to `CN(C)c1ccc(/C=C/C(=O)c2cccc(Br)c2)cc1`, the EC50 in data set [11] is > 300 µM (not active); in data set [12], > 300 µM (inconclusive). For the same compound, the half-maximal inhibitory concentration (IC50) is > 100 µM (not active) at Ephrin type-A receptor 4, > 49.7 µM (inactive) in the data set on CHO and 5.6 µM (active) at Beta Lactamase.
For `O=S(=O)(NNc1ncc(C(F)(F)F)cc1Cl)c1ccc(F)cc1F`, in [13], the EC50 is 3.38 µM (active).
Turning to `Cc1ccc(CNC(=O)CN2CCC(C(N)=O)CC2)cc1`, the IC50 at Ephrin type-A receptor 4 is > 100 µM (not active).
As to `Cc1c(-c2cc[nH]n2)cc(NC(=O)c2ccc(Cl)cc2)c(=O)n1N`, the EC50 in data set [13] is 1.17 µM (active).
Consider `O=C(C1CCCCC1)N1CC(=O)N2CCc3ccccc3[C@@H]2C1` [PRAZIQUANTEL, (R)-], for which the AC50 at Cytochrome P450 2C19 [10] is 25.1 µM (inconclusive); on Cytochrome P450 2C19 [14], 5.01 µM (inconclusive); on Cytochrome P450 2C9, “inconclusive”.
